Experimental data as given in US6291678A, “Process for the preparation of chiral keto-heterocycles of basic amino acids” (Warner-Lambert Company, priority 1998, dated 2001).

Legend:
thrombin = thrombin (Homo sapiens, UniProt P00734); assay: Inhibition of thrombin catalytic activity (cleavage of chromogenic substrate S-2238); type: biochemical; details: S-2238 substrate; 60 minutes incubation at room temperature; absorbance at 405 nm over 5 minutes
Description: Typically thrombin in 10 mM HEPES, 100 mM NaCl, 0.05% BSA, and 0.1% PEG-8000 and the test substance in DMSO are incubated for 60 minutes at room temperature.

trypsin = molecular target: T1, trypsin (Bos taurus, UniProt P00760); assay: Trypsin inhibitory activity (chromogenic substrate S2222); type: biochemical; details: protocol similar to thrombin
T1 sequence (P00760 24-246): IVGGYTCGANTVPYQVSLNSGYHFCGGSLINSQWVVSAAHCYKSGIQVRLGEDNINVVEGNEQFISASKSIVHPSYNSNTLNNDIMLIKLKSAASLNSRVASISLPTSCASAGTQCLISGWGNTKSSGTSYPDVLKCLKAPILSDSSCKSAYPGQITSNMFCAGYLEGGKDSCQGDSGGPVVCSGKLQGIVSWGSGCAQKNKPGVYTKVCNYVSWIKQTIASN
Description: The ability of compounds to act as inhibitors of thrombin catalytic activity is assessed by determination of that concentration of test substance that inhibits by 50% (IC50) the ability of thrombin to cleave the chromogenic substrate S-2238 (H-D-Phe-L-Pip-L-Arg-p-nitroanilide.2 HCl). Typically thrombin in 10 mM HEPES, 100 mM NaCl, 0.05% BSA, and 0.1% PEG-8000 and the test substance in DMSO are incubated for 60 minutes at room temperature. To this mixture is added S-2238 and the velocity of S-2238 hydrolysis measured by observing the intensity of absorbance at 405 nm over 5 minutes.
A similar protocol is followed to access the trypsin inhibitory activity of the test substances, except thrombin is replaced by trypsin and the chromogenic substrate is S2222 (N-Bz-L-Ile-L-Glu-L-Gly-L-Arg-p-nitroanilide.HCl).

rat carotid artery = assay: Rat arterial model of thrombosis (FeCl3 injury of the carotid artery), markers of anticoagulant activity in vivo; details: for Fold Shift in aPTT: activated partial thromboplastin time at 30 minute time point, control aPTT 15 s; for Fold Shift in aPTT / Fold Shift in TT: loading dose 0.75 mg/kg plus infusion of 50 μg/kg/min; for Fold Shift in MOT: mean occlusion time, loading dose 0.75 mg/kg plus continual infusion of 50 μg/kg/min, control MOT 20 minutes; for Fold Shift in TT: thrombin time at 30 minute time point, control TT 30 s
Description: The ability of compounds to affect markers of anticoagulant activity in vivo were assessed in a rat arterial model of thrombosis. This model requires injury of the rat carotid artery by the application of a FeCl3 solution. Typically test substances are administered by applying a loading dose of 0.75 mg/kg plus continual infusion of 50 μg/kg/min.
The fold shift in aPTT and TT are measured at a 30 minute time point.

Structure (SMILES)	IC50 (thrombin) [nM]	IC50 (trypsin) [nM]	Fold Shift in aPTT (rat carotid artery)	Fold Shift in MOT (rat carotid artery)	Fold Shift in TT (rat carotid artery)
N=C(N)NCCC[C@H](NC(=O)[C@@H]1CC[C@H]2CN(C(=O)CCc3ccccc3)CC(=O)N21)C(=O)c1nccs1 [A]	5	1	3.2	2.4	13
N=C(N)N1CCC[C@@H](C[C@H](NC(=O)[C@@H]2CC[C@H]3CN(C(=O)CCc4ccccc4)CC(=O)N32)C(=O)c2nccs2)C1 [B]	30	4350	3.1	> 3	15
